{"source": "patent US20200316072A1", "about": "“COMPOUNDS FOR USE IN REGULATING FOLLICLE MATURATION” (AARHUS UNIVERSITET, priority 2017, published 2020)", "origin": "cited, not measured here", "system": "IGF/Akt/mTOR signaling pathway", "details": "stated as prior knowledge on the DPP4 inhibitor; test system not given", "data": [{"smiles": "CC#CCn1c(N2CCC[C@@H](N)C2)nc2c1c(=O)n(Cc1nc(C)c3ccccc3n1)c(=O)n2C", "note": "[Linagliptin, 8-[(3R)-3-aminopiperidin-1-yl]-7-but-2-ynyl-3-methyl-1-[(4-methylquinazolin-2-yl)methyl]purine-2,6-dione]", "values": [{"measurement": "phosphorylated protein expression of IGF/Akt/mTOR signaling pathway", "result": "alleviated"}]}]}
